Measurements as given in ChEMBL document CHEMBL1201862, “PubChem BioAssay data set” (2004).
pEC50: −log10 of the molar value. The source made the active and inactive calls.

Tests used:
[1] = molecular target: T1, G-protein coupled receptor 55 (Homo sapiens, UniProt Q9Y2T6); experiment: GPR55 antagonists blocking LPI-driven arrestin recruitment, primary screen, imaging, U2OS, beta-arrestin-GFP, LPI agonist (AID 2013); format: functional;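 note: antagonist potency measured as reduced agonist-driven arrestin aggregation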
Cannabinoid receptor 1 [2] = molecular target: T2, Cannabinoid receptor 1 (Homo sapiens, UniProt P21554); experiment: SAR analysis of antagonists of the Cannabinoid Receptor 1 using an Image-Based Assay - Set 2. [Related pubchem assays (depositor defined):AID2013, AID2026]; format: functional
[3] = molecular target: T3, G-protein coupled receptor 35 (Homo sapiens, UniProt Q9HC97); experiment: SAR analysis of Agonists of the GPR35 Receptor using an Image-Based Assay - Set 2. [Related pubchem assays (depositor defined):AID2013, AID2026]; format: functional
Cannabinoid receptor 2 [4] = molecular target: T4, Cannabinoid receptor 2 (Homo sapiens, UniProt P34972); experiment: SAR analysis of antagonists of the Cannabinoid Receptor 2 using an Image-Based Assay. [Related pubchem assays (depositor defined):AID2013, AID2026]; format: functional
Cannabinoid receptor 1 [5] = molecular target: T2, Cannabinoid receptor 1; experiment: SAR analysis of agonists of the Cannabinoid Receptor 1 using an Image-Based Assay - Set 2. [Related pubchem assays (depositor defined):AID2013, AID2026]; format: functional
[6] = molecular target: T3, G-protein coupled receptor 35; experiment: SAR analysis of Antagonists of the GPR35 Receptor using an Image-Based Assay - Set 3. [Related pubchem assays (depositor defined):AID2013, AID2026]; format: functional
[7] = molecular target: T1, G-protein coupled receptor 55; experiment: GPR55 antagonist potency of analogs, SAR follow-up, imaging, U2OS, beta-arrestin-GFP, LPI agonist, set 2 (AID 2820); format: functional
Cannabinoid receptor 2 [8] = molecular target: T4, Cannabinoid receptor 2; experiment: SAR analysis of agonists of the Cannabinoid Receptor 2 using an Image-Based Assay. [Related pubchem assays (depositor defined):AID2013, AID2026]; format: functional
[9] = molecular target: Intestinal-type alkaline phosphatase (Homo sapiens, UniProt P09923); experiment: activation of human intestinal alkaline phosphatase – biochemical, dose response (AID 488873); format: functional
[10] = molecular target: Intestinal-type alkaline phosphatase (Mus musculus, UniProt P24822); experiment: PubChem AID 488785; format: functional
[11] = molecular target: T5, Alkaline phosphatase, tissue-nonspecific isozyme (Homo sapiens, UniProt P05186); experiment: TNAP enzyme inhibition by screening hits, dose response, selectivity assay for mouse IAP inhibitor project, biochemical, human TNAP, uHTS hits (AID 488906); format: functional
T5 sequence (P05186 whole entry): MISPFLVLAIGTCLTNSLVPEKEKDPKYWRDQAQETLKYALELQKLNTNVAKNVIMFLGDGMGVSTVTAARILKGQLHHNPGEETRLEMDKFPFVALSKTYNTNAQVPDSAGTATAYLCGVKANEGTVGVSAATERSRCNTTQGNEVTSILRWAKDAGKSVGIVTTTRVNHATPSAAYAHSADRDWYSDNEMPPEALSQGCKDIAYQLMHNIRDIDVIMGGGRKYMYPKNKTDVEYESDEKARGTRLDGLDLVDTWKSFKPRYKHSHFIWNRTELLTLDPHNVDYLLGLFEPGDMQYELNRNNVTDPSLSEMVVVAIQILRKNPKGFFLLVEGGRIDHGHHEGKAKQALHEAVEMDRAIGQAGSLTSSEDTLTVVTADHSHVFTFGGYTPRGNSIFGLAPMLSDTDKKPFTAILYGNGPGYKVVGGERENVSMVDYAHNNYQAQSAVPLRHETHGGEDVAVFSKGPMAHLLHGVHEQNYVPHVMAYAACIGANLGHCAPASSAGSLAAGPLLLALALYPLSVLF

[12] = molecular target: T6, Polyadenylate-binding protein 1 (Homo sapiens, UniProt P11940); experiment: PABP1 MLLE–PAM2 interaction inhibitors, dose response, miRNA deadenylation inhibitor project, biochemical, fluorescence polarization, Cy5-PAM2 peptide, secondary (AID 602260); format: functional; settings: read-out: IC50_Mean
[13] = molecular target: T6, Polyadenylate-binding protein 1; experiment: PABP1 MLLE–PAM2 binding inhibitor potency, dose response, biochemical, fluorescence polarization, FITC-PAM2 peptide (AID 602259); format: functional; settings: read-out: IC50_Mean
[14] = molecular target: T7, Tyrosine-protein phosphatase non-receptor type 22 (Homo sapiens, UniProt Q9Y2R2); experiment: SAR LYP1 Fluorescent Assay using pCAP substrate for In Vitro dose response studies - Set 2. [Related pubchem assays (depositor defined):AID1779, AID1784, AID2135, AID449727]; format: functional
T7 sequence (Q9Y2R2 whole entry): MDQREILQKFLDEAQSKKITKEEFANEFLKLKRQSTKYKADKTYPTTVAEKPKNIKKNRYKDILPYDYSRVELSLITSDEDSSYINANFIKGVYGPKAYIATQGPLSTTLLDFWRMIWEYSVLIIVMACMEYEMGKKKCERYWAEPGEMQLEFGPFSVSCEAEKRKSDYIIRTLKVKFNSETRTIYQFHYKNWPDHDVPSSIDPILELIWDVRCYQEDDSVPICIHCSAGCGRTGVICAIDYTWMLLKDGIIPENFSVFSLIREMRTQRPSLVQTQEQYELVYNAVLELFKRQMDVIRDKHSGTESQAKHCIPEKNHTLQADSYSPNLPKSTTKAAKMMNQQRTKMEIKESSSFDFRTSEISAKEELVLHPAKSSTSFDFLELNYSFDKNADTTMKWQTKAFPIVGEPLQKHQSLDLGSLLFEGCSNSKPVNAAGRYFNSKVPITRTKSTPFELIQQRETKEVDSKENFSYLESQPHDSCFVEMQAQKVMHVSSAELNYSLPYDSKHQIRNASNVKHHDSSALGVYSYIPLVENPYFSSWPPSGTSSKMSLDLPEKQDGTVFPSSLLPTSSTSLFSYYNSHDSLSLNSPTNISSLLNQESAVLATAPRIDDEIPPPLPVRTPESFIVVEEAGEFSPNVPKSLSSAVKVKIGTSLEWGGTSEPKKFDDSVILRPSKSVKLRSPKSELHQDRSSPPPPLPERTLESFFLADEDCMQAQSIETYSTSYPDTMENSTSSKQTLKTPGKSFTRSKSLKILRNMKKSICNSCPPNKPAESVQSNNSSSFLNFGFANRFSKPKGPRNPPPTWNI

[15] = molecular target: Tyrosine-protein phosphatase non-receptor type 12 (Homo sapiens, UniProt Q05209); experiment: SAR Selectivity Analysis of small molecule inhibitors of PEST using pCAP in a fluorescence assay. [Related pubchem assays (depositor defined):AID1779, AID1784, AID2135]; format: functional
[16] = molecular target: T7, Tyrosine-protein phosphatase non-receptor type 22; experiment: SAR LYP1 Fluorescent Assay using OMFP substrate for In Vitro dose response studies - Set 3. [Related pubchem assays (depositor defined):AID1779, AID1784, AID2140, AID2686]; format: functional
[17] = molecular target: T8, Tyrosine-protein phosphatase non-receptor type 7 (Homo sapiens, UniProt P35236); experiment: HePTP (PTPN7) phosphatase inhibitor potency, SAR follow-up, biochemical, set 2 (AID 449736); format: functional
T8 sequence (P35236 whole entry): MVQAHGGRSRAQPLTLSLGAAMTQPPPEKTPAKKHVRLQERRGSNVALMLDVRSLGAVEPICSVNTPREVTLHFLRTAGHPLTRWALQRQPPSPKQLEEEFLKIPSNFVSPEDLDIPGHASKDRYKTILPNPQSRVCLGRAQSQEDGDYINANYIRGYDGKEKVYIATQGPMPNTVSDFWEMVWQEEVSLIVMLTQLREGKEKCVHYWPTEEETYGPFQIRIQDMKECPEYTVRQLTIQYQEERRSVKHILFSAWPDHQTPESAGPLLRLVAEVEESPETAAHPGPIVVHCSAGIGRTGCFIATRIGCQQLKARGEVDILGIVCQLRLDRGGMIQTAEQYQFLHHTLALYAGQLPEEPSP

[18] = molecular target: T7, Tyrosine-protein phosphatase non-receptor type 22; experiment: LYP (PTPN22) phosphatase inhibitor potency, SAR follow-up, biochemical, pCAP fluorogenic substrate, fluorescence, set 3 (AID 449727); format: functional
[19] = molecular target: T7, Tyrosine-protein phosphatase non-receptor type 22; experiment: SAR LYP1 Fluorescent Assay using OMFP substrate for In Vitro dose response studies - Set 2. [Related pubchem assays (depositor defined):AID1779, AID1784, AID2140, AID449726, AID488869]; format: functional
[20] = molecular target: T9, Delta-type opioid receptor (Homo sapiens, UniProt P41143); experiment: HTS Image-Based Screen for Antagonists of the DOR Receptor. [Related pubchem assays (depositor defined):AID1777, AID1785, AID1786, AID2133]; format: functional
Mu-type opioid receptor [21] = molecular target: T10, Mu-type opioid receptor (Homo sapiens, UniProt P35372); experiment: HTS Image-Based Screen for Agonists of the MOR Receptor. [Related pubchem assays (depositor defined):AID1777, AID1785, AID1786, AID2133]; format: functional
[22] = molecular target: T9, Delta-type opioid receptor; experiment: HTS Image-Based Screen for Agonists of the DOR Receptor. [Related pubchem assays (depositor defined):AID1777, AID1786, AID2133]; format: functional
[23] = molecular target: T11, Kappa-type opioid receptor (Homo sapiens, UniProt P41145); format: functional
[24] = molecular target: T11, Kappa-type opioid receptor; format: functional; remark: listed apart in the source
[25] = molecular target: T11, Kappa-type opioid receptor; experiment: SAR analysis of small molecule agonists of the kappa opioid receptor via a luminescent beta-arrestin assay. [Related pubchem assays (depositor defined):AID1777, AID1786, AID1966, AID2133, AID2136, AID2348, AID2352, AID2357, AID2359, AID2370, AID2420, AID2478, AID2491, AID2492, AID2493, AID2497, AID2498, AID2500, AID449737, AID488822, AID488842]; format: functional
Mu-type opioid receptor [26] = molecular target: T10, Mu-type opioid receptor; experiment: MOR agonists by imaging, SAR follow-up, image-based (AID 2352); format: functional
[27] = molecular target: T9, Delta-type opioid receptor; experiment: DOR agonists, SAR follow-up, image-based (AID 2370); format: functional
[28] = molecular target: T11, Kappa-type opioid receptor; experiment: KOR antagonists by imaging, SAR follow-up, image-based (AID 2348); format: functional
Mu-type opioid receptor [29] = molecular target: T10, Mu-type opioid receptor; experiment: MOR antagonists, SAR follow-up, image-based (AID 2420); format: functional;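 note: compounds added before stimulation of receptor with agonist DAMGO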
[30] = molecular target: T11, Kappa-type opioid receptor; experiment: KOR agonist analogs, imaging readout, SAR follow-up, image-based (AID 2359); format: functional
[31] = molecular target: T9, Delta-type opioid receptor; experiment: DOR antagonists, SAR follow-up, image-based (AID 2357); format: functional
[32] = molecular target: Peroxisome proliferator-activated receptor gamma/Nuclear receptor coactivator 1 (Homo sapiens, UniProt P37231); experiment: TR-FRET dose response biochemical High Throughput Screening assay for agonists of the steroid receptor coactivator 1 (SRC-1) recruitment by the peroxisome proliferator-activated receptor gamma (PPAR gamma): non-selective agonists. [Related pubchem assays (depositor defined):AID1300, AID1808, AID504735, AID631]; format: protein assay
[33] = molecular target: Peroxisome proliferator-activated receptor gamma/Nuclear receptor coactivator 3 (Homo sapiens, UniProt P37231); experiment: TR-FRET dose response biochemical High Throughput Screening assay for agonists of the steroid receptor coactivator 3 (SRC-3) recruitment by the peroxisome proliferator-activated receptor gamma (PPAR gamma): non-selective agonists. [Related pubchem assays: 1301 (Confirmation screen.), 1048 (Primary screen.)]; format: functional
[34] = molecular target: Peroxisome proliferator-activated receptor gamma/Nuclear receptor coactivator 2 (Homo sapiens, UniProt P37231); experiment: TR-FRET dose response biochemical High Throughput Screening assay for agonists of the steroid receptor coactivator 2 (SRC-2) recruitment by the peroxisome proliferator-activated receptor gamma (PPAR gamma): non-selective agonists. [Related pubchem assays: 1297, 1032 ]; format: functional

T11 sequence (P41145 whole entry): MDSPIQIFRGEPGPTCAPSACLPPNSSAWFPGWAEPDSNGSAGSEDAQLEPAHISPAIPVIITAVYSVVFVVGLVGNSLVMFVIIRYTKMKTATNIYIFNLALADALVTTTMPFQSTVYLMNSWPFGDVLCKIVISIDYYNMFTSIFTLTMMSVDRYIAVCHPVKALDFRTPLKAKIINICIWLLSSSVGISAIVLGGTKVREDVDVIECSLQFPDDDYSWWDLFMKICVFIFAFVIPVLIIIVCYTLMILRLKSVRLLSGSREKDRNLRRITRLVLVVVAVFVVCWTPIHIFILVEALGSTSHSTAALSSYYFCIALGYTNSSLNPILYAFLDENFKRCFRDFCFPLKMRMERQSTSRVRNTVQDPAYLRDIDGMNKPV
T10 sequence (P35372 whole entry): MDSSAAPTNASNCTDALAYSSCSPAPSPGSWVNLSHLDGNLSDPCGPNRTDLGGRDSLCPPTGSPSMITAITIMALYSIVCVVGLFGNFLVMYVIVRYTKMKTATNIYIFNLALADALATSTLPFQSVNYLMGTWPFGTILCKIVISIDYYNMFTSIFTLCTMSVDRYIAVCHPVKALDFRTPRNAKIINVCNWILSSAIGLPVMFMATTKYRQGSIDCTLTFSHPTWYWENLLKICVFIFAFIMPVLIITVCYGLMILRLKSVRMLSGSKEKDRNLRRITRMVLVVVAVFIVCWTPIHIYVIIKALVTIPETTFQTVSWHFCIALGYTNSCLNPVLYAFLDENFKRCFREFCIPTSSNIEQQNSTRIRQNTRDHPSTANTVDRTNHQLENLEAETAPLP
T9 sequence (P41143 whole entry): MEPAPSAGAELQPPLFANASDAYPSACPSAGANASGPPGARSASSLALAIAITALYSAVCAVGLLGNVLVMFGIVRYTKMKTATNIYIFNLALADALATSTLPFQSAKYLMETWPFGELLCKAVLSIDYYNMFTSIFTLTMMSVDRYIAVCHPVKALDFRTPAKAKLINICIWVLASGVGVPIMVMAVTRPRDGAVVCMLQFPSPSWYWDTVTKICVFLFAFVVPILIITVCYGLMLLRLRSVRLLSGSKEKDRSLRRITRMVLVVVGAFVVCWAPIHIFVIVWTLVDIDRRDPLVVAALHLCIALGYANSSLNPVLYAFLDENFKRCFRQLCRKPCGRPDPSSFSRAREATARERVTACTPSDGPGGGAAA
T3 sequence (Q9HC97 whole entry): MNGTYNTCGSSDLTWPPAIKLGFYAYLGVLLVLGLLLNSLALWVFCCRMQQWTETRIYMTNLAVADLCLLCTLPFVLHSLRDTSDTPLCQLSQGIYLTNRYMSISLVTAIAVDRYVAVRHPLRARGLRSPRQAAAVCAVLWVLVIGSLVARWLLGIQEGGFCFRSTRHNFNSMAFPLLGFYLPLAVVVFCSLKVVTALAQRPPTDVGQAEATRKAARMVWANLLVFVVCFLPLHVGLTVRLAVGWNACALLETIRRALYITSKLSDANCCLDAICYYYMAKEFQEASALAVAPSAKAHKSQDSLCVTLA
T1 sequence (Q9Y2T6 whole entry): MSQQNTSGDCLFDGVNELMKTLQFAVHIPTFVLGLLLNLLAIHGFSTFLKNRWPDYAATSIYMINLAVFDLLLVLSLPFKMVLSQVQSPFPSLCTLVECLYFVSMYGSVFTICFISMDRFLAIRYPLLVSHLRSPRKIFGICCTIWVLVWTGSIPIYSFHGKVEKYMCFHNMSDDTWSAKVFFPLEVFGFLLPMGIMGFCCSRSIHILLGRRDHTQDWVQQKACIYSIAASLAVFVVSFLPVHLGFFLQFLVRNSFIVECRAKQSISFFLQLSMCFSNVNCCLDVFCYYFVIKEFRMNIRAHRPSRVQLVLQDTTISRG
T6 sequence (P11940 whole entry): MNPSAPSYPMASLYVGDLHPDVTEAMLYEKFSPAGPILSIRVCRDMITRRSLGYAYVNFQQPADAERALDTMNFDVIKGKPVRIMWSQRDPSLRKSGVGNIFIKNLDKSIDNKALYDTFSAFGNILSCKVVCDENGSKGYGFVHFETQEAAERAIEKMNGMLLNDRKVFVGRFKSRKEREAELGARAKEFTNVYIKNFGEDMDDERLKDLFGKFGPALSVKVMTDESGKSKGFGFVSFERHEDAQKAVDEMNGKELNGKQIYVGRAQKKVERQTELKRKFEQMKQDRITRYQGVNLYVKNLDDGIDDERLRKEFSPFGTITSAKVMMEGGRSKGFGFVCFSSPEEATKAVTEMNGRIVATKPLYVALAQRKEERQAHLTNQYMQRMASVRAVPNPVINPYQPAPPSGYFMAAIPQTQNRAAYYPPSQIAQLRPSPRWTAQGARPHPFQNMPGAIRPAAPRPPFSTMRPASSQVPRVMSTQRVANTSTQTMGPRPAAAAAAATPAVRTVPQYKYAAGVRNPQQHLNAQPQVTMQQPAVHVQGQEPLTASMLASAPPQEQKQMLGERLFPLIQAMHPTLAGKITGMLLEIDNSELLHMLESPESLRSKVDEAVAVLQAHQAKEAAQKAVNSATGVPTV
T4 sequence (P34972 whole entry): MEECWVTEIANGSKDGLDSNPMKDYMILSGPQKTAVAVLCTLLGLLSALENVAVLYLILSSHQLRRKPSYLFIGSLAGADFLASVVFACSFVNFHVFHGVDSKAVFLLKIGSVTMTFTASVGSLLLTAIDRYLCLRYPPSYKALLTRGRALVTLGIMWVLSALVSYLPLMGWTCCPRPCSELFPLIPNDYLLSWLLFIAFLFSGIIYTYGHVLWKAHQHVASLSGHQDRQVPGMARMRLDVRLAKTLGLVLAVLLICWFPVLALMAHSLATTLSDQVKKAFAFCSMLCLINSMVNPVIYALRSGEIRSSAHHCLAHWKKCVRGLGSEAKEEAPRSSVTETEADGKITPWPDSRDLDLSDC
T2 sequence (P21554 whole entry): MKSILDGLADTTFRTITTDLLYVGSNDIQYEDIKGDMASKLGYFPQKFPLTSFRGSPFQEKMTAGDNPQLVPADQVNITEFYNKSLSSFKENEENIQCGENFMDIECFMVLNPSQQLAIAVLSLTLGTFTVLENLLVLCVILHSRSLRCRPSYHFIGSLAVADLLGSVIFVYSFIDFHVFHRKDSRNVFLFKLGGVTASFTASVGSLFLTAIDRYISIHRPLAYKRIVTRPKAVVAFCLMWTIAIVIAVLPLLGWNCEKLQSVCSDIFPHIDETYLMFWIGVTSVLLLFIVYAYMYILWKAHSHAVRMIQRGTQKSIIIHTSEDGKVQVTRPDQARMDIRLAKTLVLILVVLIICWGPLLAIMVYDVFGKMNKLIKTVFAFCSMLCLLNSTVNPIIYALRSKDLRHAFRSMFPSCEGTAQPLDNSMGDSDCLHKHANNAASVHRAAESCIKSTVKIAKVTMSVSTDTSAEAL
Chain of Intestinal-type alkaline phosphatase (Homo sapiens, UniProt P09923) (P09923 whole entry): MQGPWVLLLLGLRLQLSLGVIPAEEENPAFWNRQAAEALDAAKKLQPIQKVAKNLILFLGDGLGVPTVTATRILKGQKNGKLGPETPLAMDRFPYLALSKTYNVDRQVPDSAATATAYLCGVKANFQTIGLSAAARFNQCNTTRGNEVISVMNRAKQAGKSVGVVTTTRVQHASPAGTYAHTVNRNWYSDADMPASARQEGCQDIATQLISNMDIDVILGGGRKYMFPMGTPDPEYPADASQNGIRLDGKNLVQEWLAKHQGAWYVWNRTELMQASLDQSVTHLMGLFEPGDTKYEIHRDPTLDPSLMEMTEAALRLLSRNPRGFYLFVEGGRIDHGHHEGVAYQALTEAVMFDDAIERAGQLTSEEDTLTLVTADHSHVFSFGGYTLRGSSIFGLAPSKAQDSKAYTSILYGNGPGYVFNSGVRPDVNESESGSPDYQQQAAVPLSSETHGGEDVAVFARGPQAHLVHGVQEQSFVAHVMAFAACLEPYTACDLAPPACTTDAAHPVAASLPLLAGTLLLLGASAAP
Chain of Intestinal-type alkaline phosphatase (Mus musculus, UniProt P24822) (P24822 whole entry): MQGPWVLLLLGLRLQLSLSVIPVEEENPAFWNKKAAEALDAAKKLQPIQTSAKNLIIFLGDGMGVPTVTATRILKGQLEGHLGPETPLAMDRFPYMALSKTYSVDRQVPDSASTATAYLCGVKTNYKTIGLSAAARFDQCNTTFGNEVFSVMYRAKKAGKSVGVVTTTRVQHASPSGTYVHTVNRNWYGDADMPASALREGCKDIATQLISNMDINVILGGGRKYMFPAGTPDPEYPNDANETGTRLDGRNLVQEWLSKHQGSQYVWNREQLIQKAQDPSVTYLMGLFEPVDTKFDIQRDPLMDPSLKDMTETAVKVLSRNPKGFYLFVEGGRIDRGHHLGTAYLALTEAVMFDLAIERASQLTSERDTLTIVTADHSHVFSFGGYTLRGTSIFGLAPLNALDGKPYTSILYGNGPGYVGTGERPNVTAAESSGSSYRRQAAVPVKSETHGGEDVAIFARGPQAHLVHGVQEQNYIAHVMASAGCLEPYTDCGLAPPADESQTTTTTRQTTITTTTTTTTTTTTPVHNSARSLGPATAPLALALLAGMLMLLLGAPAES

SMILES: COc1ccc(S(=O)(=O)Nc2ccc(F)cc2)cc1N(C)S(=O)(=O)c1ccc(Cl)cc1
- IC50 [1]: 0.908 µM (active)
- IC50 (Cannabinoid receptor 1 [2]): 6.63 µM (active)
- EC50 [3]: > 32 µM (inactive)
- IC50 (Cannabinoid receptor 2 [4]): > 32 µM (inactive)
- EC50 (Cannabinoid receptor 1 [5]): > 32 µM (inactive)
- IC50 [6]: > 32 µM (inactive)
- IC50 [7]: 0.831 µM (active)
- EC50 (Cannabinoid receptor 2 [8]): > 32 µM (inactive)

SMILES: CCOC(=O)CN1C(=O)/C(=C2\SC(=S)N(NC(=O)c3cccnc3)C2=O)c2ccccc21
- EC50 [9]: 25.5 µM (active)
- IC50 [10]: 11.2 µM (active)
- IC50 [11]: > 100 µM (inactive)
- IC50 [12]: > 66 µM (inactive)
- IC50 [13]: > 66 µM (inactive)

SMILES: O=C(O)COc1ccc(NC(=O)c2ccco2)cc1
- IC50 [14]: > 100 µM (inactive)
- IC50 [15]: > 100 µM (inactive)
- IC50 [16]: > 100 µM (inactive)
- IC50 [17]: > 100 µM (inactive)
- IC50 [18]: > 100 µM (inactive)
- IC50 [19]: > 100 µM (inactive)

SMILES: Cc1cccc(C)c1NC(=O)C1(N(Cc2ccco2)C(=O)c2ccccn2)CCCC1
- IC50 [20]: > 32 µM (inactive)
- EC50 (Mu-type opioid receptor [21]): > 32 µM (inactive)
- EC50 [22]: > 32 µM (inactive)
- pEC50 [23]: 5.71
- pEC50 [24]: 5.38
- EC50 [25]: 4.05 µM (active)
- EC50 (Mu-type opioid receptor [26]): > 32 µM (inactive)
- EC50 [27]: > 32 µM (inactive)
- IC50 [28]: > 32 µM (inactive)
- IC50 (Mu-type opioid receptor [29]): > 32 µM (inactive)
- EC50 [30]: 1.11 µM (active)
- IC50 [31]: > 32 µM (inactive)

SMILES: C#CCn1/c(=N/C(=O)c2sc3ccccc3c2Cl)sc2cc(S(N)(=O)=O)ccc21
- EC50 [32]: 16.2 µM (inactive)
- EC50 [33]: > 79.4 µM (not active)
- EC50 [34]: 18.7 µM (not active)
